Experiments:
[1] = tested on: LTB0016 intracellular amastigotes in J774.1 macrophages; assay: Macrophage-amastigote model, reference strain; format: cell-based, Leishmania amazonensis
Procedure: (§1) We used a previously described methodology, with some modifications. Macrophage monolayers, grown in RMPIc medium, for 3 days, were detached from the bottom of the culture chamber, by physical treatment (low temperature and light strokes). Obtained macrophages were seeded in flat-bottom 96-well culture plates, at a density of 2 × 10^5 cells mL^−1 (40,000 macrophages/well), in a final volume of 200 µL. Plates were incubated for 2 h, and the supernatant was discarded to remove non-adhered macrophages. Medium was replaced with stationary-phase promastigotes suspended in 200 µL of RPMIc (2 × 10^6 parasites mL^−1, 400,000 parasites/well), at a macrophage: parasite ratio 1:10 [40]. The plates were incubated for 4 h. Afterwards the medium was replaced with fresh RPMIc and increasing concentrations of compounds or drugs tested were applied, in volumes of 2 µL, according to the different treatment groups. Plates were kept for 72 h, at 37 °C and 5% CO2. The medium was discarded and the wells were washed twice with PBS. Next, a Giemsa staining was performed in situ. It consisted of adding 200 µL of methanol/well, incubating for 5 min, discarding the fixative, and letting it dry at room temperature. Later, the Giemsa solution (10% in PBS w/v, 200 µL/well) was added, incubated for 10 min, and washed with PBS, allowing it to dry. Finally, the bottom of the plates was detached by percussion and the circular bottoms (wells) were fixed to slides with Permount synthetic resin, for later evaluation (Alcazar W., manuscript in preparation). Cell counting was performed with a 100× immersion objective. A minimum of 200 random macrophages were examined. The percentage of infected macrophages (% infection) and the average number of amastigotes present in infected macrophages (amastigotes) were determined. […] The infection rate represents the number of intracellular amastigotes per 100 macrophages evaluated. Additionally, the GI50 for the decrease in the infection rate was calculated. At least three independent experiments were performed. The effect of amphotericin-B (AmB) [Sigma-Aldrich, (St. Louis, MO, USA)] was included as positive control of the assay.

[2] = Cytotoxicity (Alamar Blue) in macrophages; format: cell-based, murine; details: mouse, J774.1 macrophages
Procedure: In flat-bottom 96-well culture plates, J774.1 macrophages were seeded at a cell density of 5 × 10^4 mL^−1 (10,000 macrophages/well) in 200 µL of RPMIc. After 24 h at 37 °C, 5% CO2, medium was replaced by 180 µL of RPMIc, without phenol red, and increasing concentrations of test compounds in 2-µL volumes. […] At least two independent experiments were performed in duplicate. Based on the inhibition of cell growth caused by the tested compounds, the percentage of growth inhibition compared to untreated cells was calculated. […] Selectivity indices (SI) were calculated, dividing the macrophage CC50 by the parasites GI50 (SI = CC50/GI50).

[3] = tested on: VE2000MM intracellular amastigotes in J774.1 macrophages; assay: Macrophage-amastigote model, patient isolate VE2000MM; format: cell-based, Leishmania amazonensis
Procedure: as §1

[4] = tested on: VE98MR intracellular amastigotes in J774.1 macrophages; assay: Macrophage-amastigote model, patient isolate VE98MR; format: cell-based, Leishmania amazonensis
Procedure: as §1

[5] = tested on: L. (L.) amazonensis LTB0016 promastigotes; assay: Promastigote in vitro susceptibility (Alamar Blue/resazurin), reference strain; format: cell-based, Leishmania amazonensis; details: Leishmania amazonensis; LTB0016 promastigotes, 72 h; read-out: Promastigote (GI50) mean
Procedure: The fluorometric method of Alamar Blue® (resazurin) was used. Promastigotes grown in biphasic agar-blood medium, at the exponential phase of growth, were seeded in flat-bottom 96-well culture plates, at a cell density of 1 × 10^6 parasites mL^−1 (200,000 parasites/well), in 180 µL of RPMIc without phenol red. Subsequently, either a sole concentration (50 µM), or increasing concentrations of compounds or drugs were applied, according to each treatment group, in volumes of 2 µL. Plates were kept at 26 °C, in a humid chamber, for 72 h. […] Live parasites are metabolically active and capable of reducing non-fluorescent resazurin (blue) to fluorescent resorufin (red). Fluorescence intensity is directly proportional to the number of viable cells. […] At least two independent experiments were performed in duplicate. The effect of trivalent antimonial [SbIII, potassium antimonyl tartrate trihydrate, Sigma-Aldrich, (St. Louis, MO, USA)] was included as positive control of the assay.

[6] = J774.1 CC50 / intracellular amastigote GI50, Table 2

C[C@@H]1[C@H](O)[C@@H](C)/C=C/C=C/C=C/C=C/C=C/C=C/C=C/[C@H](O[C@@H]2O[C@H](C)[C@@H](O)[C@H](N)[C@@H]2O)C[C@@H]2O[C@](O)(C[C@@H](O)C[C@@H](O)[C@H](O)CC[C@@H](O)C[C@@H](O)CC(=O)O[C@H]1C)C[C@H](O)[C@H]2C(=O)O [AmB, amphotericin-B, reference compound]
SI (CC50/GI50) LTB0016 [1, 6]: >500 | Growth (%) Exp1 Infección ([1]; LTB0016, 0.10 µM, 72 h, Exp1, % infected macrophages): 12.89% | Growth (%) Exp1 A/MØ ([1]; LTB0016, 0.10 µM, 72 h, Exp1, amastigotes per infected macrophage): 2.10 | Growth (%) Exp1 A/100MØ ([1]; LTB0016, 0.10 µM, 72 h, Exp1, infection index): 27.07 | Growth (%) Exp1 %Control ([1]; LTB0016, 0.10 µM, 72 h, Exp1, infection index vs DMSO): 10.32% | Growth (%) Exp2 Infección ([1]; LTB0016, 0.10 µM, 72 h, Exp2, % infected macrophages): 13.33% | Growth (%) Exp2 A/MØ ([1]; LTB0016, 0.10 µM, 72 h, Exp2, amastigotes per infected macrophage): 1.38 | Growth (%) Exp2 A/100MØ ([1]; LTB0016, 0.10 µM, 72 h, Exp2, infection index): 18.40 | Growth (%) Exp2 %Control ([1]; LTB0016, 0.10 µM, 72 h, Exp2, infection index vs DMSO): 8.65% | Growth (%) Exp3 Infección ([1]; LTB0016, 0.10 µM, 72 h, Exp3, % infected macrophages): 8.08% | Growth (%) Exp3 A/MØ ([1]; LTB0016, 0.10 µM, 72 h, Exp3, amastigotes per infected macrophage): 1.33 | Growth (%) Exp3 A/100MØ ([1]; LTB0016, 0.10 µM, 72 h, Exp3, infection index): 10.75 | Growth (%) Exp3 %Control ([1]; LTB0016, 0.10 µM, 72 h, Exp3, infection index vs DMSO): 6.05% | Average A/100MØ ([1]; LTB0016, 0.10 µM, 72 h, average of Exp1-3): 18.74 | GI50 ([1]; Leishmania amazonensis, J774.1, intracellular amastigotes, 72 h, Table 2, read-out: GI50 (µM) LTB0016): 0.02 µM | CC50 at 72 h [2]: > 10000 nM | SI (CC50/GI50) VE2000MM [3, 6]: >125 | GI50 ([3]; Leishmania amazonensis, J774.1, intracellular amastigotes, 72 h, Table 2, read-out: GI50 (µM) VE2000MM): 0.08 µM | Growth (%) Exp1 %Control ([3]; VE2000MM, dose 0.10 µM, Exp1): 7.30% | Growth (%) Exp1 A/100MØ ([3]; VE2000MM, dose 0.10 µM, Exp1): 18.04 | Growth (%) Exp1 A/MØ ([3]; VE2000MM, dose 0.10 µM, Exp1): 1.70 | Growth (%) Exp1 Infección ([3]; VE2000MM, dose 0.10 µM, Exp1): 10.61% | Growth (%) Exp2 %Control ([3]; VE2000MM, dose 0.10 µM, Exp2): 9.84% | Growth (%) Exp2 A/100MØ ([3]; VE2000MM, dose 0.10 µM, Exp2): 23.78 | Growth (%) Exp2 A/MØ ([3]; VE2000MM, dose 0.10 µM, Exp2): 2.17 | Growth (%) Exp2 Infección ([3]; VE2000MM, dose 0.10 µM, Exp2): 10.96% | Growth (%) Exp3 %Control ([3]; VE2000MM, dose 0.10 µM, Exp3): 7.62% | Growth (%) Exp3 A/100MØ ([3]; VE2000MM, dose 0.10 µM, Exp3): 17.22 | Growth (%) Exp3 A/MØ ([3]; VE2000MM, dose 0.10 µM, Exp3): 2.00 | Growth (%) Exp3 Infección ([3]; VE2000MM, dose 0.10 µM, Exp3): 8.61% | Average A/100MØ ([3]; VE2000MM, dose 0.10 µM, average of Exp1-3): 19.68 | SI (CC50/GI50) VE98MR [4, 6]: >136 | GI50 ([4]; Leishmania amazonensis, J774.1, intracellular amastigotes, 72 h, Table 2, read-out: GI50 (µM) VE98MR): 0.073 µM | Growth (%) Exp1 %Control ([4]; VE98MR, dose 0.10 µM, Exp1): 10.60% | Growth (%) Exp1 A/100MØ ([4]; VE98MR, dose 0.10 µM, Exp1): 17.06 | Growth (%) Exp1 A/MØ ([4]; VE98MR, dose 0.10 µM, Exp1): 1.26 | Growth (%) Exp1 Infección ([4]; VE98MR, dose 0.10 µM, Exp1): 13.54% | Growth (%) Exp2 %Control ([4]; VE98MR, dose 0.10 µM, Exp2): 2.71% | Growth (%) Exp2 A/100MØ ([4]; VE98MR, dose 0.10 µM, Exp2): 5.60 | Growth (%) Exp2 A/MØ ([4]; VE98MR, dose 0.10 µM, Exp2): 1.16 | Growth (%) Exp2 Infección ([4]; VE98MR, dose 0.10 µM, Exp2): 4.83% | Growth (%) Exp3 %Control ([4]; VE98MR, dose 0.10 µM, Exp3): 6.21% | Growth (%) Exp3 A/100MØ ([4]; VE98MR, dose 0.10 µM, Exp3): 15.40 | Growth (%) Exp3 A/MØ ([4]; VE98MR, dose 0.10 µM, Exp3): 2.00 | Growth (%) Exp3 Infección ([4]; VE98MR, dose 0.10 µM, Exp3): 7.70% | Average A/100MØ ([4]; VE98MR, dose 0.10 µM, average of Exp1-3): 12.69 | GI50 [5]: 68 nM
